Laboratory results reported in paper PMC5218480 (PLoS ONE, 2017).

System: MV-4-11 cells
Assay: Gene expression microarray analysis (Affymetrix PrimeView) and GSEA
Type: cell-based, human
Set-up: RFU PODN (11730768_x_at) / Fold change /veh PODN (11730768_x_at) / RFU LINC00158 (11744669_a_at) / Fold change /veh LINC00158 (11744669_a_at) / RFU DUSP10 (11751237_a_at) / Fold change /veh DUSP10 (11751237_a_at) / RFU ID3 (11757404_x_at) / Fold change /veh ID3 (11757404_x_at) / RFU PLEKHG5 (11737974_s_at) / Fold change /veh PLEKHG5 (11737974_s_at) / RFU LRRC4B (11730491_at) / Fold change /veh LRRC4B (11730491_at) / RFU GIMAP4 (11747438_a_at) / Fold change /veh GIMAP4 (11747438_a_at) / RFU KRT8 (11758183_x_at) / Fold change /veh KRT8 (11758183_x_at) / RFU CNN1 (11734310_a_at) / Fold change /veh CNN1 (11734310_a_at) / RFU VPS37D (11726825_at) / Fold change /veh VPS37D (11726825_at) / RFU C10orf10 (11716522_x_at) / Fold change /veh C10orf10 (11716522_x_at) / RFU KIR2DL2 /// KIR2DL4 /// KIR2DL5A /// KIR2DL5B /// KIR2DS1 /// KIR2DS2 /// KIR2DS3 /// KIR2DS4 /// KIR3DL3 /// KIR3DL3 /// KIR3DS1 (11738374_at) / Fold change /veh KIR2DL2 /// KIR2DL4 /// KIR2DL5A /// KIR2DL5B /// KIR2DS1 /// KIR2DS2 /// KIR2DS3 /// KIR2DS4 /// KIR3DL3 /// KIR3DL3 /// KIR3DS1 (11738374_at) / RFU C1QL1 (11718748_at) / Fold change /veh C1QL1 (11718748_at) / RFU TMPRSS4 (11747572_a_at) / Fold change /veh TMPRSS4 (11747572_a_at) / RFU HAMP (11756126_x_at) / Fold change /veh HAMP (11756126_x_at) / RFU RNFT2 (11725882_a_at) / Fold change /veh RNFT2 (11725882_a_at) / RFU NR4A2 (11747474_a_at) / Fold change /veh NR4A2 (11747474_a_at) / RFU ABCC12 (11746883_a_at) / Fold change /veh ABCC12 (11746883_a_at) / RFU TMEM136 (11760407_x_at) / Fold change /veh TMEM136 (11760407_x_at) / RFU CLDN22 /// WWC2 (11732394_at) / Fold change /veh CLDN22 /// WWC2 (11732394_at) / RFU HLA-DPB1 (11760878_x_at) / Fold change /veh HLA-DPB1 (11760878_x_at) / RFU SPINT1 (11716480_a_at) / Fold change /veh SPINT1 (11716480_a_at) / RFU GAP43 (11754022_s_at) / Fold change /veh GAP43 (11754022_s_at) / RFU A4GNT (11735810_at) / Fold change /veh A4GNT (11735810_at) / RFU PRB3 (11715151_x_at) / Fold change /veh PRB3 (11715151_x_at) / RFU TUBB4B (11761932_at) / Fold change /veh TUBB4B (11761932_at) / RFU CAPN14 (11732068_a_at) / Fold change /veh CAPN14 (11732068_a_at) / RFU TMCC2 (11721928_a_at) / Fold change /veh TMCC2 (11721928_a_at) / RFU IRGQ (11745062_a_at) / Fold change /veh IRGQ (11745062_a_at) / RFU FAM174B (11720279_a_at) / Fold change /veh FAM174B (11720279_a_at) / RFU TMPRSS4 (11748680_a_at) / Fold change /veh TMPRSS4 (11748680_a_at) / RFU FAM212B (11763350_a_at) / Fold change /veh FAM212B (11763350_a_at) / RFU PLEKHG5 (11743358_a_at) / Fold change /veh PLEKHG5 (11743358_a_at) / RFU ZSCAN30 (11745921_a_at) / Fold change /veh ZSCAN30 (11745921_a_at) / RFU CMKLR1 (11741424_a_at) / Fold change /veh CMKLR1 (11741424_a_at) / RFU LOC101060620 /// MAPK8IP1 (11723275_at) / Fold change /veh LOC101060620 /// MAPK8IP1 (11723275_at) / RFU SPTSSB (11747773_x_at) / Fold change /veh SPTSSB (11747773_x_at) / RFU PRSS12 (11739890_at) / Fold change /veh PRSS12 (11739890_at) / RFU BIN1 (11741810_x_at) / Fold change /veh BIN1 (11741810_x_at) / RFU WNT11 (11732464_a_at) / Fold change /veh WNT11 (11732464_a_at) / RFU C10orf10 (11716521_a_at) / Fold change /veh C10orf10 (11716521_a_at) / RFU C5orf56 (11738089_at) / Fold change /veh C5orf56 (11738089_at) / RFU CYB561 (11721691_x_at) / Fold change /veh CYB561 (11721691_x_at) / RFU ANKRD19P (11752326_a_at) / Fold change /veh ANKRD19P (11752326_a_at) / RFU OR2T12 /// OR2T33 /// OR2T8 (11738714_s_at) / Fold change /veh OR2T12 /// OR2T33 /// OR2T8 (11738714_s_at) / RFU VCAN (11748164_a_at) / Fold change /veh VCAN (11748164_a_at) / RFU JSRP1 (11732532_at) / Fold change /veh JSRP1 (11732532_at) / RFU KRTAP10-11 (11738290_x_at) / Fold change /veh KRTAP10-11 (11738290_x_at) / RFU MYO3A (11730013_a_at) / Fold change /veh MYO3A (11730013_a_at) / RFU EBF3 (11725865_a_at) / Fold change /veh EBF3 (11725865_a_at) / RFU CAMK2N1 (11719241_x_at) / Fold change /veh CAMK2N1 (11719241_x_at) / RFU C5orf56 (11738088_a_at) / Fold change /veh C5orf56 (11738088_a_at) / RFU OLFML3 (11715873_a_at) / Fold change /veh OLFML3 (11715873_a_at) / RFU LOC100653217 /// NTM (11731650_a_at) / Fold change /veh LOC100653217 /// NTM (11731650_a_at) / RFU MAPK11 (11762145_a_at) / Fold change /veh MAPK11 (11762145_a_at) / RFU FIZ1 (11724087_x_at) / Fold change /veh FIZ1 (11724087_x_at) / RFU OASL (11726364_x_at) / Fold change /veh OASL (11726364_x_at) / RFU SOX15 (11748057_x_at) / Fold change /veh SOX15 (11748057_x_at) / RFU CD79A (11719716_a_at) / Fold change /veh CD79A (11719716_a_at) / RFU HIST1H1D (11736915_at) / Fold change /veh HIST1H1D (11736915_at) / RFU CASKIN2 (11723855_a_at) / Fold change /veh CASKIN2 (11723855_a_at) / RFU LOC730098 (11760151_x_at) / Fold change /veh LOC730098 (11760151_x_at) / RFU OR4N2 (11742367_at) / Fold change /veh OR4N2 (11742367_at) / RFU PRRT2 (11749266_a_at) / Fold change /veh PRRT2 (11749266_a_at) / RFU SNX32 (11753110_a_at) / Fold change /veh SNX32 (11753110_a_at) / RFU CDHR5 (11726645_a_at) / Fold change /veh CDHR5 (11726645_a_at) / RFU RCAN1 (11760418_a_at) / Fold change /veh RCAN1 (11760418_a_at) / RFU FAM167A (11723789_a_at) / Fold change /veh FAM167A (11723789_a_at) / RFU FAM26E (11764081_at) / Fold change /veh FAM26E (11764081_at) / RFU ISYNA1 (11749810_s_at) / Fold change /veh ISYNA1 (11749810_s_at) / RFU ACY1 (11761880_at) / Fold change /veh ACY1 (11761880_at) / RFU 11764098_at / Fold change /veh 11764098_at / RFU SAMD14 (11745864_x_at) / Fold change /veh SAMD14 (11745864_x_at) / RFU NPB (11741838_a_at) / Fold change /veh NPB (11741838_a_at) / RFU TMPRSS6 (11731388_a_at) / Fold change /veh TMPRSS6 (11731388_a_at) / RFU KRTAP10-2 (11738614_at) / Fold change /veh KRTAP10-2 (11738614_at) / RFU ARHGAP8 /// PRR5-ARHGAP8 (11727945_x_at) / Fold change /veh ARHGAP8 /// PRR5-ARHGAP8 (11727945_x_at) / RFU KRTAP5-7 /// NADSYN1 (11734609_at) / Fold change /veh KRTAP5-7 /// NADSYN1 (11734609_at) / RFU RASL12 (11751679_a_at) / Fold change /veh RASL12 (11751679_a_at) / RFU CDKN2B (11736163_a_at) / Fold change /veh CDKN2B (11736163_a_at) / RFU PRF1 (11729649_at) / Fold change /veh PRF1 (11729649_at) / RFU, ZNF638 /// ZNF638-IT1 / Fold change vs veh, ZNF638 /// ZNF638-IT1 / RFU, PANK3 / Fold change vs veh, PANK3 / RFU, SH3YL1 / Fold change vs veh, SH3YL1 / RFU, ZEB2 / Fold change vs veh, ZEB2 / RFU, NRIP1 / Fold change vs veh, NRIP1 / RFU, PTTG1IP / Fold change vs veh, PTTG1IP / RFU, CAPN2 / Fold change vs veh, CAPN2 / RFU, MED14 / Fold change vs veh, MED14 / RFU, SNORA58 / Fold change vs veh, SNORA58 / RFU, C1orf63 / Fold change vs veh, C1orf63 / RFU, LRRFIP1 / Fold change vs veh, LRRFIP1 / RFU, NDUFAF7 / Fold change vs veh, NDUFAF7 / RFU, SLC12A2 / Fold change vs veh, SLC12A2 / RFU, IBTK / Fold change vs veh, IBTK / RFU, ESF1 / Fold change vs veh, ESF1 / Fold change vs veh, TMEM50B / RFU, TAOK1 / Fold change vs veh, TAOK1 / RFU, ACBD3 / Fold change vs veh, ACBD3 / RFU, TMA16 / Fold change vs veh, TMA16 / RFU, RWDD3 / Fold change vs veh, RWDD3 / RFU, BCAT1 / Fold change vs veh, BCAT1 / RFU, EDEM3 / Fold change vs veh, EDEM3 / RFU, TMEM33 / Fold change vs veh, TMEM33 / RFU, WDR75 / Fold change vs veh, WDR75 / RFU, AHCTF1 / Fold change vs veh, AHCTF1 / RFU, TFRC / Fold change vs veh, TFRC / RFU, ZDHHC17 / Fold change vs veh, ZDHHC17 / RFU, NOM1 / Fold change vs veh, NOM1 / RFU, ARL8B / Fold change vs veh, ARL8B / RFU, ZBTB11 / Fold change vs veh, ZBTB11 / RFU, TAMM41 / Fold change vs veh, TAMM41 / RFU, KIAA1704 /// LOC100996395 / Fold change vs veh, KIAA1704 /// LOC100996395 / RFU, ING1 / Fold change vs veh, ING1 / RFU, TRMT61B / Fold change vs veh, TRMT61B / RFU, FUBP3 / Fold change vs veh, FUBP3 / RFU, TP53 / Fold change vs veh, TP53 / RFU, TNKS2 / Fold change vs veh, TNKS2 / RFU, ZFP14 / Fold change vs veh, ZFP14 / RFU, ACTR2 / Fold change vs veh, ACTR2 / RFU, PPP3R1 / Fold change vs veh, PPP3R1 / RFU, PIK3R1 / Fold change vs veh, PIK3R1 / RFU, HNRNPA1 / Fold change vs veh, HNRNPA1 / RFU, RNF170 / Fold change vs veh, RNF170 / RFU, ZNF28 / Fold change vs veh, ZNF28 / RFU, RNGTT / Fold change vs veh, RNGTT / RFU, OGT / Fold change vs veh, OGT / RFU, BRD1 / Fold change vs veh, BRD1 / RFU, MARS / Fold change vs veh, MARS / RFU, ZNF655 / Fold change vs veh, ZNF655 / RFU, FAHD1 / Fold change vs veh, FAHD1 / RFU, BDP1 / Fold change vs veh, BDP1 / RFU, LRRCC1 / Fold change vs veh, LRRCC1 / RFU, ARID1A / Fold change vs veh, ARID1A / RFU, ZNF146 / Fold change vs veh, ZNF146 / RFU, ZNF330 / Fold change vs veh, ZNF330 / RFU, GPN3 / Fold change vs veh, GPN3 / RFU, C9orf123 / Fold change vs veh, C9orf123 / RFU, N4BP2L2 / Fold change vs veh, N4BP2L2 / RFU, ARFIP1 / Fold change vs veh, ARFIP1 / RFU, FAM179B / Fold change vs veh, FAM179B / RFU, BCL10 / Fold change vs veh, BCL10 / RFU, UHRF1BP1L / Fold change vs veh, UHRF1BP1L / RFU, BET1 / Fold change vs veh, BET1 / RFU, CNOT2 / Fold change vs veh, CNOT2 / RFU, ZNF268 / Fold change vs veh, ZNF268 / Fold change vs veh, ZNF507 / RFU, DGCR2 / Fold change vs veh, DGCR2 / RFU, WDSUB1 / Fold change vs veh, WDSUB1 / Fold change vs veh, HSP90B1 /// MIR3652 / RFU, ADSS / Fold change vs veh, ADSS / RFU, GK / Fold change vs veh, GK / RFU, ZNF148 / Fold change vs veh, ZNF148 / RFU, TAF9 / Fold change vs veh, TAF9 / RFU, SLC1A5 / Fold change vs veh, SLC1A5 / RFU, SLMO2 / Fold change vs veh, SLMO2 / RFU, ABCC4 / Fold change vs veh, ABCC4 / RFU, LOC101060439 /// RAP1B / Fold change vs veh, LOC101060439 /// RAP1B / RFU, RFX7 / Fold change vs veh, RFX7 / RFU, GTPBP10 / Fold change vs veh, GTPBP10 / RFU, CNEP1R1 / Fold change vs veh, CNEP1R1 / RFU, BIVM-ERCC5 /// ERCC5 / Fold change vs veh, BIVM-ERCC5 /// ERCC5 / RFU, ILF3 / Fold change vs veh, ILF3 / RFU 11762660_at / Fold change /veh 11762660_at / RFU VCAN (11757783_s_at) / Fold change /veh VCAN (11757783_s_at) / RFU DDX43 (11728927_at) / Fold change /veh DDX43 (11728927_at) / RFU KRT8 (11758188_x_at) / Fold change /veh KRT8 (11758188_x_at) / RFU NKD1 (11759106_at) / Fold change /veh NKD1 (11759106_at) / RFU SRD5A1 (11742802_a_at) / Fold change /veh SRD5A1 (11742802_a_at) / RFU TPSAB1 /// TPSB2 (11721975_s_at) / Fold change /veh TPSAB1 /// TPSB2 (11721975_s_at) / RFU GSTM3 (11746129_a_at) / Fold change /veh GSTM3 (11746129_a_at) / RFU IL23R (11737362_x_at) / Fold change /veh IL23R (11737362_x_at) / RFU TMEM51 (11727254_a_at) / Fold change /veh TMEM51 (11727254_a_at) / RFU PIWIL2 (11732686_x_at) / Fold change /veh PIWIL2 (11732686_x_at) / RFU ORM1 (11744905_x_at) / Fold change /veh ORM1 (11744905_x_at) / RFU CCDC152 (11743942_at) / Fold change /veh CCDC152 (11743942_at) / RFU ECM1 (11717891_a_at) / Fold change /veh ECM1 (11717891_a_at) / RFU IL23R (11748794_a_at) / Fold change /veh IL23R (11748794_a_at) / RFU TNFAIP8L3 (11732012_x_at) / Fold change /veh TNFAIP8L3 (11732012_x_at) / RFU MBOAT4 (11741988_at) / Fold change /veh MBOAT4 (11741988_at) / RFU 11764193_at / Fold change /veh 11764193_at / RFU TMEM53 (11763286_at) / Fold change /veh TMEM53 (11763286_at) / RFU MAGEB2 (11727129_at) / Fold change /veh MAGEB2 (11727129_at) / RFU TMEM200A (11744735_a_at) / Fold change /veh TMEM200A (11744735_a_at) / RFU CCDC152 (11751479_a_at) / Fold change /veh CCDC152 (11751479_a_at) / RFU FAM211A (11726209_a_at) / Fold change /veh FAM211A (11726209_a_at) / RFU RGS16 (11746705_a_at) / Fold change /veh RGS16 (11746705_a_at) / RFU VCAN (11755009_s_at) / Fold change /veh VCAN (11755009_s_at) / RFU RHOB (11743442_s_at) / Fold change /veh RHOB (11743442_s_at) / RFU RGS16 (11720943_a_at) / Fold change /veh RGS16 (11720943_a_at) / RFU RGS16 (11720944_at) / Fold change /veh RGS16 (11720944_at) / RFU, VPS4B / Fold change vs veh, VPS4B / RFU, CREB1 / Fold change vs veh, CREB1 / RFU, DNAJC13 / Fold change vs veh, DNAJC13 / RFU, GNAQ / Fold change vs veh, GNAQ / RFU, CDK5R1 / Fold change vs veh, CDK5R1 / RFU, ZRANB3 / Fold change vs veh, ZRANB3 / RFU, CUL4A / Fold change vs veh, CUL4A / RFU, CCNY / Fold change vs veh, CCNY / RFU, UFL1 / Fold change vs veh, UFL1 / RFU, COG3 / Fold change vs veh, COG3 / RFU, DIAPH2 / Fold change vs veh, DIAPH2 / RFU, SKA2 / Fold change vs veh, SKA2 / RFU, AFF3 / Fold change vs veh, AFF3 / RFU, LMF1 / Fold change vs veh, LMF1 / RFU, IPO11 / Fold change vs veh, IPO11 / RFU, DFFB / Fold change vs veh, DFFB / RFU, FOXP1 / Fold change vs veh, FOXP1 / RFU, CARD8 / Fold change vs veh, CARD8 / RFU, STRN3 / Fold change vs veh, STRN3 / RFU, ADK / Fold change vs veh, ADK / RFU, RASSF2 / Fold change vs veh, RASSF2 / RFU, WIPF1 / Fold change vs veh, WIPF1 / RFU, LARP1B / Fold change vs veh, LARP1B / RFU, RASA1 / Fold change vs veh, RASA1 / RFU, RB1 / Fold change vs veh, RB1 / RFU, PPFIA1 / Fold change vs veh, PPFIA1 / RFU, MAT2A / Fold change vs veh, MAT2A / RFU, CCT5 / Fold change vs veh, CCT5 / RFU, WDR92 / Fold change vs veh, WDR92 / RFU, CUX1 / Fold change vs veh, CUX1 / RFU, TTC7A / Fold change vs veh, TTC7A / RFU, TMEM135 / Fold change vs veh, TMEM135 / RFU, DEPTOR / Fold change vs veh, DEPTOR / RFU, CPM / Fold change vs veh, CPM / RFU, DNAJB6 / Fold change vs veh, DNAJB6 / RFU, CACNA2D3 / Fold change vs veh, CACNA2D3 / RFU, DTX4 / Fold change vs veh, DTX4 / RFU, TFCP2 / Fold change vs veh, TFCP2 / RFU, GMCL1 /// GMCL1P1 / Fold change vs veh, GMCL1 /// GMCL1P1 / RFU, AEBP2 / Fold change vs veh, AEBP2 / RFU, SNHG1 /// SNORD22 /// SNORD25 /// SNORD26 /// SNORD27 /// SNORD28 /// SNORD29 /// SNORD31 / Fold change vs veh, SNHG1 /// SNORD22 /// SNORD25 /// SNORD26 /// SNORD27 /// SNORD28 /// SNORD29 /// SNORD31 / Fold change (Aza/veh), C12orf56 (ProbeSet 11735607_a_at) / Fold change (ACY-1035/veh), C12orf56 (ProbeSet 11735607_a_at) / Fold change (Aza/veh), FGFR1OP (ProbeSet 11751329_s_at) / Fold change (ACY-1035/veh), FGFR1OP (ProbeSet 11751329_s_at) / Fold change (Aza/veh), VPS36 (ProbeSet 11739960_a_at) / Fold change (ACY-1035/veh), VPS36 (ProbeSet 11739960_a_at) / RFU SYPL1 (11715823_x_at) / Fold change /veh SYPL1 (11715823_x_at) / RFU IGFBP7 (11715501_s_at) / Fold change /veh IGFBP7 (11715501_s_at) / RFU REEP3 (11722064_at) / Fold change /veh REEP3 (11722064_at) / RFU IGLL1 (11728026_x_at) / Fold change /veh IGLL1 (11728026_x_at): dose or concentration left out as unconfirmed
Conditions: MV-4-11 cells, 48 hours

Nc1ccc(-c2cccs2)cc1NC(=O)c1ccc2c(c1)cc(C1CC1)n2CCN1CCOCC1 [ACY-1035]
Fold change /veh PODN (11730768_x_at): 1.05
